Test results as given in patent US20060281689A1, “Method for modulating activity of HCV protease through use of a novel HCV protease inhibitor to reduce duration of treatment period” (Schering Corporation, priority 2005, published 2006).

Assays:
hepatitis C virus [1] = test: Model of viral dynamics modified with Total ε: theoretical effectiveness rate and viral load over a 48 week treatment period; parameters: species or system patients
Source text: The effectiveness of suppression of viral production through treatment in accordance with the methods of the present invention can be calculated through a combination pharmacokinetic and pharmacodynamic analysis with a modified version of the absorption and elimination model described in the art. See Powers K A. et al. (Seminars in Liver Disease, 23 Suppl. 1:13-8, 2003). The absorption and elimination model, which incorporates the Neumann et al. model of viral dynamics, calculates simulated changes in drug concentration and effectiveness of single drug treatment in Equations […], 6, and 7. See Powers K A. et al. (Seminars in Liver Disease, 2003, 23 Suppl. 1:13-8), and Neumann A U, Lam N P, Dahari H, et al. (Science 1998, 282: 103-107). […]
Equation 7 incorporates the effects of a delay between a drug binding to its receptor and beginning its biological action. […] Thus, for t>τ, [formula] the effectiveness rate, ε, of a drug at time, t, is calculated by Equation 7.
For the present invention, the Neumann et al. model of Equation 1 and the absorption and elimination model of Equations 5, 6, and 7, is modified to incorporate calculations for monitoring the effectiveness rate of suppressing viral production by multiple drug treatment through combination therapy with the HCV protease inhibitor and HCV agents including interferon, interferon pegylated, and/or ribavirin. The absorption and elimination model in Equations 5, 6, and 7 is modified by including an effectiveness rate of a combination therapy, Total ε, which is based upon combining the individual efficacy, ε, over time, t, as calculated by Equation 7, for each drug used in the combination therapy of the present invention. The effectiveness rate, Total ε, is calculated with the formula […], where ε(t)Pl is the effectiveness of a HCV protease inhibitor and where ε(t)Ag is the effectiveness of an HCV agent, both independently calculated by Equation 7. […]

hepatitis C virus [2] = test: Parallel group study in patients afflicted with hepatitis C virus, 14 days, mean viral load (HCV RNA); assay type: in vivo; settings: either dose (200 mg or 400 mg three times a day orally) in combination with PEG-Intron 1.5 mcg/kg/week
Procedure: Preferably, in the practice of the invention, the concentration of HCV-RNA is quantitatively measured by research-based reverse transcriptase polymerase chain reaction (RT-PCR) assay well known to the skilled clinician. Specifically, the Hepatitis C virus (HCV) RNA is measured by extracting total RNA from plasma or serum samples and using an in-house real-time reverse transcriptase polymerase chain reaction (RT-PCR) assay. The amplification target is the 5′-untranslated region (UTR) of the HCV genome. An internal RNA control is added to each sample to assess the efficiency of RNA extraction. Appropriate negative and positive controls are added in each assay run. The assay method has been validated against the WHO International Standard for HCV. HCV RNA amount in a sample is reported as copies of HCV RNA per mL of sample and also as HCV IU per mL of sample. Results for sample at or above 100 copies of HCV RNA per mL are denoted as POS. On the other hand, ND stands for <100 copies of HCV RNA or <29 IU of HCV per mL of sample. […] With respect to quantifying HCV RNA with the rt-PCR methodology referred to herein, one (1) copy of HCV RNA equals 0.29 IU, such that 100 copies of HCV RNA per milliliter of plasma is 29 International Units per milliliter of plasma. […] HCV genotype is determined by sequencing the PCR amplified DNA fragment of the 5′-UTR of the HCV genome. […]

CC(C)(C)NC(=O)N[C@H](C(=O)N1CC2C([C@H]1C(=O)NC(CC1CCC1)C(=O)C(N)=O)C2(C)C)C(C)(C)C (some centres unmarked) [HCV protease inhibitor]
theoretical effectiveness rate, ε, over time, t (hepatitis C virus [1]; 200 mg three times a day orally with PEG-Intron 1.5 mcg/kg/week subcutaneously, 48 weeks): 0.989 | time of treatment until viral load is below 29 IU/ml plasma (100 copies per ml plasma) (hepatitis C virus [1]; 200 mg three times a day orally with PEG-Intron 1.5 mcg/kg/week subcutaneously, theoretical calculations): approximately 14 weeks | effectiveness rate, ε, over time, t (hepatitis C virus [1]; 400 mg three times a day orally with PEG-Intron 1.5 mcg/kg/week subcutaneously, 48 weeks): 0.997 | viral load in the second week of treatment (hepatitis C virus [2]): continued to decline | decrease in mean viral load at the end of the first week of treatment (hepatitis C virus [2]; compared with PEG-Intron alone): much steeper decrease in mean viral load
